# From article PMC4399838, “Antipsychotic-Like Effect of the Muscarinic Acetylcholine Receptor Agonist BuTAC in Non-Human Primates” (PLoS ONE, 2015)
# “Also recorded” adds a separate entry of the source.
# What was measured:
# monkeys = assay: BuTAC-induced emesis and its inhibition by domperidone; format: in vivo, Cebus Apella; details: BuTAC 0.01 mg/kg alone; observed 300 minutes
# Procedure: S1 Table. Emesis BuTAC / Domperidone
# BuTAC 0.01 mg/kg / 1 in 7
# Domperidone was purchased from Tocris Bioscience (Bristol, United Kingdom) and dissolved
# in 0.9% saline. The compound was administered subcutaneously where after the animals
# [1] = biological target: T1, human M2 muscarinic receptor (Homo sapiens, UniProt P08172); set-up: method as in Watt et al. 2013 [10]; details: agonist mode, ref Watt et al. 2013 [10], cited from earlier work
# T1 construct: purchased PerkinElmer Life and Analytical Sciences, Boston, MA
# T1 sequence (P08172 1-466): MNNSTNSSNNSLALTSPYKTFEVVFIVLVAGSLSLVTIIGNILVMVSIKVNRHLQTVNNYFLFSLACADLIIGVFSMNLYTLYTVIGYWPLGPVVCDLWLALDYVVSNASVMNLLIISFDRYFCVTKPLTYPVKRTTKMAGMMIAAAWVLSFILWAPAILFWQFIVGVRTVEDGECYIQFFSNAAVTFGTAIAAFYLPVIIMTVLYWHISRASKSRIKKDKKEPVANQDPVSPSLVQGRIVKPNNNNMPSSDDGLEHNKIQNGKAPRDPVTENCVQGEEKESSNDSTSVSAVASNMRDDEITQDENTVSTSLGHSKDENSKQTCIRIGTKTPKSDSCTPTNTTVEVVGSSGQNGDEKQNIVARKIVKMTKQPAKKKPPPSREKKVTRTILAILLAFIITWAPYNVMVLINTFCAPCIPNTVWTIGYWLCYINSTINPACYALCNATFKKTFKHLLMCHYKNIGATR
# [2] = test system: antipsychotic-naïve Cebus Apella monkeys; assay: d-Amphetamine-induced behaviour (unrest, stereotypies, arousal), video rating; format: in vivo; details: d-amphetamine 0.5 mg/kg
# Procedure: (§1) Seven male Cebus Apella monkeys were used for evaluation the anti-amphetamine effect and the side effect profile of BuTAC. These monkeys were never before administered antipsychotics and had never experienced EPS, but had previously been administered amphetamine. For further evaluation of the EPS potential of BuTAC, the compound was tested in four male and female monkeys, all sensitized to drug-induced EPS by earlier chronic treatment with classical antipsychotic drugs.
# (§2) All monkeys received all treatments with at least one week between tests and thus served as their own control. To avoid extended physical contact with the experimenter, the cages were reduced in sized by moving the back wall of the cage closer to the front wall to lightly immobilize the monkey while injecting the test substance in the thigh. This was done at 9 am at test days. After the appropriate pre-treatment time, the monkeys were videotaped in their cages at predefined time points after drug injection.
# (§3) The rated primate behaviours and symptoms were the following: unrest, stereotypy, arousal, sedation and bradykinesia (Table 1). All monkeys were videotaped in 90-sec. sessions at specific time points throughout the test sessions. The videotapes were rated for amphetamine-induced behaviours and EPS by two experienced raters blinded to the treatment of the animal by means of a rating scale adapted from Peacock et al. and previously described by Andersen et al. (Table 1). In case of any discrepancy between the two ratings, the recording in question was re-evaluated and a rating agreed upon. The monkeys were videotaped at t = 30, 60, 90, 135, 150, 165, 180, 240, 300 min after BuTAC (or vehicle) administration. For the combination studies, d-amphetamine was injected at t = 120 min. Oral dyskinesia was measured in counts per 90 sec. The severity of other behaviours and symptoms were rated on a scale ranging from 0 (not present) to 6 (extreme presence).
# (§4) For evaluation of anti-amphetamine effects, BuTAC was tested in doses of 0.001, 0.003, 0.01 mg/kg in combination with 0.5 mg/kg of d-amphetamine. BuTAC or peanut oil vehicle was injected s.c. at approximately 9 a.m. Pre-treatment time before s.c. injection of amphetamine was 120 min. For evaluation of side effects, BuTAC was tested alone at doses of 0.001, 0.003 and 0.01 mg/kg in antipsychotic-naïve monkeys and at doses of 0.003 and 0.01 mg/kg in monkeys sensitized to extrapyramidal side effects (EPS) by earlier long-term treatment with first generation antipsychotics. […] None of the animals were sacrificed.
# (§5) Data from the experiments where BuTAC was administered alone collected at t = 60, 180, 300 min are presented. For the d-amphetamine / BuTAC study, data collected at t(amp) = 60, 120 and 180 min (t = 180, 240, 300 min) are reported. Data were analyzed for overall treatment effects at each time point by means of the non-parametric Friedman’s test for repeated measures. The Student Newman-Keuls comparison procedure was used to analyze for specific dose effects. For all tests, the accepted level of significance was p<0.05.
# [3] = test system: antipsychotic-naïve Cebus Apella monkeys; assay: Side effects of BuTAC alone or with d-amphetamine; format: in vivo
# Procedure: as §1, §2, §3, §4, §5
# EPS sensitized monkeys = assay: Side effects (EPS) of BuTAC in EPS-sensitized monkeys; format: in vivo, Cebus Apella
# Procedure: as §1
# The EPS sensitized monkeys were originally caught in the wild and had been at the laboratory for 13–20 years at the time of testing. The EPS naïve monkeys were born in captivity and had been at the laboratory for 7 years at the time of testing. They were between 11 and 18 years old, when the studies were initiated. The monkeys weighed between 2.5 kg (smallest female) and 5 kg (largest male). Their weight was monitored weekly and they were regularly checked by a veterinarian.
# as §3, §4
# [4] = BuTAC 0.003 mg/kg s.c., at 180 min
# [5] = BuTAC 0.01 mg/kg s.c., at 120 and 180 min
# [6] = BuTAC 0.001 mg/kg / d-amphetamine 0.5 mg/kg
# [7] = BuTAC alone 0.001, 0.003, 0.01 mg/kg
# [8] = BuTAC 0.01 mg/kg, four EPS sensitized monkeys
compound,measurement,setting,value
"CCCCSc1nsnc1[C@H]1CN2CCC[C@H]1C2 [BuTAC, (5R,6R)-6-(3-butylthio-1,2,5-thiadiazol-4-yl)-1-azabicyclo[3.2.1]octane]","Emetic events (vomiting), monkeys with emesis",monkeys,7/7
same,Rel pEC50,[1]; negative log-transformed,9.56 ±10.26 M
same,% Emax,[1],136.53 ± 17.20%
same,Effect on d-amphetamine-induced arousal,"[2]; BuTAC 0.001 mg/kg s.c., at 60 min",counteracted
same,Effect on amphetamine-induced stereotypies,[2]; [4],significantly reduced
same,Effect on amphetamine-induced unrest,[2]; [4],significantly counteracted
same,Effect on amphetamine-induced stereotypies,[2]; [5],significantly reduced
same,Effect on amphetamine-induced unrest,[2]; [5],significantly counteracted
same,Effect on d-amphetamine-induced arousal,"[2]; BuTAC 0.003 and 0.01 mg/kg s.c., at 60, 120 and 180 min",counteracted
same,Emetic events (vomiting) (monkeys affected),[3]; [6],0
same,Sedation 2 ≤ X ≤ 5 (monkeys affected),[3]; [6],0
same,Salivation (monkeys affected),[3]; BuTAC 0.001 mg/kg / vehicle,0
same,Sedation 2 ≤ X ≤ 5 (monkeys affected),[3]; BuTAC 0.001 mg/kg / vehicle,0
same,Sedation 2 ≤ X ≤ 5 (monkeys affected),[3]; BuTAC 0.003 mg/kg / d-amphetamine 0.5 mg/kg,0
same,Salivation (monkeys affected),[3]; BuTAC 0.003 mg/kg / vehicle,0
same,Muscular relaxation (monkeys affected),[3]; BuTAC 0.01 mg/kg (footnote of Table 3),all monkeys
same,Sedation 2 ≤ X ≤ 5 (monkeys affected),[3]; BuTAC 0.01 mg/kg / d-amphetamine 0.5 mg/kg,0
same,Muscular relaxation (monkeys affected),[3]; BuTAC 0.001 and 0.003 mg/kg (footnote of Table 3),one
same,Muscular relaxation (monkeys affected),[3]; BuTAC 0.003 and 0.01 mg/kg combined with d-amphetamine,Six
same,Unrest (rating 0–6),"[3]; BuTAC alone 0.01 mg/kg, after 180 and 300 min, p<0.05",decrease in unrest
same,Sedation (rating 0–6),"[3]; BuTAC alone 0.01 mg/kg, all three test times, p<0.05 relative to vehicle",produced sedation
same,Arousal,[3]; [7],no significant effect
same,"Stereotypies, oral dyskinesia, bradykinesia or dystonia",[3]; [7],not observed
same,"Sedation, oral dyskinesia, bradykinesia or dystonia",[3]; BuTAC and d-amphetamine,not observed
same,EPS,[3]; EPS naive monkeys,did not induce EPS
same,EPS,EPS sensitized monkeys; BuTAC 0.003 mg/kg,no EPS
same,Mild bradykinesia (monkeys affected),EPS sensitized monkeys; [8],Two
same,Oral dyskinesia and dystonia,EPS sensitized monkeys; [8],not observed; also recorded: no signs
same,Sedation (monkeys affected),EPS sensitized monkeys; [8],all four
same,EPS,"EPS sensitized monkeys; lower doses, 0.001- or 0.003 mg/kg of BuTAC (discussion)",no signs of EPS
